Where “and” joins values, the source holds several entries; their conditions need not be identical. Equal values may be shown once.
target: Genome polyprotein (dengue virus type 2, UniProt P29990); type: functional, Thailand/16681/1984
Sequence (P29990 1346-1475 limits assumed): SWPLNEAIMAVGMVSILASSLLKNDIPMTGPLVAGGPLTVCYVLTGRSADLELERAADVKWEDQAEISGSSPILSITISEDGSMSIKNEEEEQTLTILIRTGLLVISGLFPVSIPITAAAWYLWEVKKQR
Sequence (P29990 1476-2093 limits assumed): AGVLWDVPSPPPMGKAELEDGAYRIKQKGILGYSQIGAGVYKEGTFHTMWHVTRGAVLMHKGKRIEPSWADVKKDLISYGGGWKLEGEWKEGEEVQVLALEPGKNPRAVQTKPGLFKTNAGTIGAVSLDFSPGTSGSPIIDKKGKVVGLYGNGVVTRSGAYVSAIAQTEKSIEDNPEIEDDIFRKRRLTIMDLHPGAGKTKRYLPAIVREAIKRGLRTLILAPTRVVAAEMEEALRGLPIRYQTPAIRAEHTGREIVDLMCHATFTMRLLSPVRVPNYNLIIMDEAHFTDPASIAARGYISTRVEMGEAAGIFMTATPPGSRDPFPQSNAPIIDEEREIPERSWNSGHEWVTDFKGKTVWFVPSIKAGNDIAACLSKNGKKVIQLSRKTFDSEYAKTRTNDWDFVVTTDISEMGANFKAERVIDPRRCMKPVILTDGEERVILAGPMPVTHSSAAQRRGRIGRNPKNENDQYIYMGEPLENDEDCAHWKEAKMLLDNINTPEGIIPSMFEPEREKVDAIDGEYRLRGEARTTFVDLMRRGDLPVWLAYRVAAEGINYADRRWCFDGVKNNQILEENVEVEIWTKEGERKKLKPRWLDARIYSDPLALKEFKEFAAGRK

Going from `C[C@H]1c2cc(O)c(O)cc2CCN1C(=O)C1CCN(c2ccc(C=O)cc2)CC1` to `O=Cc1ccc(N2CCC(C(=O)Nc3cccc(Br)n3)CC2)cc1`, the IC50 falls from 80.5 µM to 14.4 µM (5.6-fold). The second is the more potent here.

`CC(C)(C)c1ccc(Cl)cc1C(=O)Nc1ccc2c(c1)CNC2` and `O=C(Nc1ccc2c(c1)CNC2)c1cc(Cl)cc2nn[nH]c12` cannot be ordered by IC50: over 99.5 µM for the first, over 99.5 µM for the second.

`O=C(O)c1cc(Cl)ccc1S(=O)(=O)N[C@H]1CC[C@H]2CN(Cc3ccccc3)C[C@H]2C1` and `N#Cc1ccccc1O[C@H]1CC[C@H](NS(=O)(=O)c2ccc(Cl)cc2C(=O)O)CC1` cannot be ordered by IC50: over 99.5 µM for the first, over 99.5 µM for the second.

`CC(C)(C)OC(=O)NCc1cccc(NC(=O)[C@@H](NC(=O)OCc2ccccc2)c2cccc(O)c2)c1` and `CC(C)(C)OC(=O)NCc1cccc(NC(=O)[C@H](NC(=O)OCc2ccccc2)C2CCNCC2)c1` cannot be ordered by IC50: over 99.5 µM for the first, over 99.5 µM for the second.

Going from `CCCCCN(C)C(=O)c1cc(Cl)ccc1NS(=O)(=O)c1ccc(Oc2ccccc2Cl)cc1` to `CCN(CC(=O)NC)C(=O)c1cc(Cl)ccc1NS(=O)(=O)c1ccc(Oc2ccccc2Cl)cc1`, the IC50 rises from 17.8 µM to 70 µM (3.9-fold). The first is the more potent here.

First: CCc1ccccc1-c1ccc([C@@H](NC(=O)OCc2ccccc2)C(=O)Nc2cccc(CN)c2)cc1
Second: CCc1ccc([C@@H](NC(=O)OCc2ccccc2)C(=O)Nc2cccc(CN)c2)cc1
The IC50 of the first is lower: 9.17 µM for the first, over 99.5 µM for the second. The first is the more potent here.

Compared with `O=C(O)c1cc(Cl)ccc1NS(=O)(=O)c1ccc(Oc2ccccc2)cc1`, `O=C(O)c1cc(Cl)ccc1NS(=O)(=O)c1ccc(-c2ccncc2)cc1` is higher in IC50: 21.7 µM for the first, over 99.5 µM for the second.

`c1ccc(OC2CCN(Cc3c[nH]c4ccccc34)CC2)cc1` and `c1ccc(CC2CCN(Cc3c[nH]c4ccccc34)CC2)cc1` cannot be ordered by IC50: over 99.5 µM for the first, over 99.5 µM for the second.

Compared with `O=C(O)c1cc(F)c(F)cc1NS(=O)(=O)c1ccc(Oc2ccccc2Cl)cc1`, `O=C(O)c1c(NS(=O)(=O)c2ccc(Oc3ccccc3Cl)cc2)ccc(Cl)c1F` is 1.6-fold higher in IC50: 11.2 µM for the first, 18.1 µM for the second.

`CN1CCc2nc(NC(=O)c3cc(Cl)cc(NC(=O)OCc4ccccc4)c3)sc2C1` and `CC(C)N1CCc2nc(NC(=O)c3cc(Cl)cc(NC(=O)OCc4ccccc4)c3)sc2C1` cannot be ordered by IC50: over 99.5 µM for the first, over 99.5 µM for the second.

`CCn1ccnc(N2CC[C@H](c3ccn[nH]3)C2)c1=O` and `CCn1cc(-c2cnc3ccnn3c2)nc(N2CC[C@@H](CO)C2)c1=O` cannot be ordered by IC50: over 99.5 µM for the first, over 99.5 µM for the second.

`Cc1cc(NC(=O)OCc2ccccc2)cc(C(=O)Nc2cccc(CN)c2)c1C` and `NCc1cccc(NC(=O)c2cc(NC(=O)OCc3ccccc3)c(=O)n3c2CCCC3)c1` cannot be ordered by IC50: over 99.5 µM for the first, over 99.5 µM for the second.

`CCCC[C@H](N)C(=O)N[C@H](C(=O)NCc1ccc(C(N)=O)cc1)c1ccc(OCc2ccccc2)cc1` and `Nc1ccc(CNC(=O)[C@@H](NC(=O)OCc2ccccc2)c2ccc(OCc3ccccc3)cc2)nc1` cannot be ordered by IC50: over 99.5 µM for the first, over 99.5 µM for the second.

Going from `COC(=O)[C@@H](C)NC(=O)c1cc(Cl)ccc1NS(=O)(=O)c1ccc(Oc2ccccc2Cl)cc1` to `C[C@@H](NC(=O)c1cc(Cl)ccc1NS(=O)(=O)c1ccc(Oc2ccccc2Cl)cc1)[C@H]1CCCO1`, the IC50 rises from 39 µM to over 99.5 µM. The first is the more potent here.

`NCc1cccc(NC(=O)[C@H](NC(=O)OCc2ccccc2)c2cccc(-c3cncc(F)c3)c2)c1` and `Cn1cc(-c2cccc([C@H](NC(=O)OCc3ccccc3)C(=O)Nc3cccc(CN)c3)c2)cn1` cannot be ordered by IC50: over 99.5 µM for the first, over 99.5 µM for the second.

`O=C(O)c1cc(Cl)ccc1S(=O)(=O)Nc1ccc(CCN2CCCC2)cc1` and `CCC(=O)N1CCc2ccc(NS(=O)(=O)c3ccc(Cl)cc3C(=O)O)cc21` cannot be ordered by IC50: over 99.5 µM for the first, over 99.5 µM for the second.

`CCn1nccc1-c1cn(CC)c(=O)c(N2CC[C@@H](CO)C2)n1` and `CCn1cc(-c2cn(C)nc2C)nc(N2CC[C@@H](CO)C2)c1=O` cannot be ordered by IC50: over 99.5 µM for the first, over 99.5 µM for the second.

`CCn1c(=O)c(N2C[C@H]3CCC[C@H]2C3)nc2ccccc21` and `CCn1c(=O)c(N2CCCC[C@H](N3CCCC3)C2)nc2ccccc21` cannot be ordered by IC50: over 99.5 µM for the first, over 99.5 µM for the second.

`O=C(O)c1cc2c(cc1NS(=O)(=O)c1ccc(F)cc1)CCC2` and `O=C(O)c1cc(Cl)ccc1NS(=O)(=O)c1ccc(N[C@H]2CCOC2)nc1` cannot be ordered by IC50: over 99.5 µM for the first, over 99.5 µM for the second.

First: O=C(/C=C/c1ccc(N2CCNCC2)cc1)C(=O)N1CCOCC1
Second: CN1[C@@H]2CCC[C@H]1C[C@@H](NC(=O)C1CCN(c3ccc(C=O)cc3)CC1)C2
The IC50 of the first is higher: over 99.5 µM for the first, 98.7 µM for the second.

Going from `CSc1ccc([C@H](CC(=O)Nc2cccc(CN)c2)NC(=O)OCc2ccccc2)cc1` to `NCc1cccc(NC(=O)[C@@H](Cc2ccccc2)NC(=O)OCc2ccccc2)c1`, the IC50 rises from 44.2 µM to over 99.5 µM. The first is the more potent here.

`Brc1cnn(C2CCN(Cc3csnn3)CC2)c1` and `c1nc(C2CCN(Cc3n[nH]c4c3COCC4)CC2)cs1` cannot be ordered by IC50: over 99.5 µM for the first, over 99.5 µM for the second.

`N=C(N)Nc1ccc(NC(=O)Oc2ccccc2)cc1` and `NCc1cccc(NC(=O)[C@]2(NC(=O)OCc3ccccc3)COc3cc(Br)ccc32)c1` cannot be ordered by IC50: over 59.8 µM for the first, over 99.5 µM for the second.

Going from `CN(C)Cc1cccc(-c2ccc(S(=O)(=O)Nc3ccc(Cl)cc3C(=O)O)cc2)c1` to `O=C(c1cc(Cl)ccc1NS(=O)(=O)c1ccc(Oc2ccccc2Cl)cc1)N1CCC[C@@H]1CO`, the IC50 falls from over 99.5 µM to 62.7 µM.

First: CC(C)CNC(=O)c1cc(Cl)ccc1C=Cc1ccc(Oc2ccccc2Cl)cc1
Second: O=C(N[C@H]1CCOC1)c1cc(Cl)ccc1NS(=O)(=O)c1ccc(Oc2ccccc2Cl)cc1
The IC50 of the first is higher: over 99.5 µM for the first, 67.4 µM for the second. The second is the more potent here.

`c1csc(-c2nnc(Sc3ncnc4sccc34)o2)c1` and `NCCCOc1cc2c(c(-c3ccc(N)nc3)c1)CCB(O)O2` cannot be ordered by IC50: over 99.5 µM for the first, over 99.5 µM for the second.

`N#Cc1cc(F)cc(N2CC[C@H](CO)C2)c1` and `CC(C)Oc1cncc(N2CC[C@@H](CO)C2)c1` cannot be ordered by IC50: over 99.5 µM for the first, over 99.5 µM for the second.

`FC(F)(F)c1nc(CNCc2cocn2)cs1` and `c1cc(Cc2noc(CCc3cscn3)n2)no1` cannot be ordered by IC50: over 99.5 µM for the first, over 99.5 µM for the second.

`c1cncc(C2CC(NCc3n[nH]c4ccccc34)C2)c1` (centres undefined) and `c1cncc([C@@H]2CN(Cc3c[nH]c4ccccc34)CCO2)c1` cannot be ordered by IC50: over 99.5 µM for the first, over 99.5 µM for the second.

`Cc1cc(CN(C)C)cc(NC(=O)[C@H](NC(=O)OCc2ccccc2)c2ccc(OCc3ccccc3)cc2)c1` and `CN(C)CCOc1cccc(CNC(=O)[C@@H](NC(=O)OCc2ccccc2)c2ccc(OCc3ccccc3)cc2)c1` cannot be ordered by IC50: over 99.5 µM for the first, over 99.5 µM for the second.

`Brc1cc(CNc2ccc3c(c2)CNC3)c2cc[nH]c2c1` and `O=C(Nc1ccc2c(c1)CNC2)c1cc(F)cc(C2=CCCOC2)c1` cannot be ordered by IC50: over 99.5 µM for the first, over 99.5 µM for the second.

`CCSc1nnc(SCCn2nc3ccccn3c2=O)s1` and `CCn1cc(-c2ccccc2)nc(N2CC[C@@H](CO)C2)c1=O` cannot be ordered by IC50: over 99.5 µM for the first, over 99.5 µM for the second.

`Cc1n[nH]c2cc(C(=O)N3CCC(C)(NC(=O)[C@H]4C[C@H](N(C)C)C4)CC3)ccc12` and `CN1CCN(C2CN(C(=O)c3cc(Br)cc(C=O)c3)C2)CC1` cannot be ordered by IC50: over 99.5 µM for the first, over 99.5 µM for the second.

`NCc1cccc(NC(=O)CN2CCN(C(=O)OCc3ccccc3)CC2)c1` and `NCc1cccc(NC(=O)[C@H](NS(=O)(=O)CC2CCC2)c2ccc(OCc3ccccc3)cc2)c1` cannot be ordered by IC50: over 99.5 µM for the first, over 99.5 µM for the second.

`CCn1cc(-c2ccc(C(F)F)nc2)nc(N2CC[C@@H](CO)C2)c1=O` and `CCNC(=O)c1cn(CC)c(=O)c(N2CC[C@@H](CO)C2)n1` cannot be ordered by IC50: over 99.5 µM for the first, over 99.5 µM for the second.

Going from `CC(=O)Nc1cccc(CNC(=O)C2CCN(c3ccc(C=O)cc3)CC2)c1` to `Cc1cccc(N2CCC(NS(=O)(=O)c3ccc(Cl)cc3C(=O)O)CC2)n1`, the IC50 rises from 98.1 µM to over 99.5 µM. The first is the more potent here.

`O=C(Nc1ccc2c(c1)CNC2)c1cc(Cl)cc2c1cnn2C[C@H]1CCCO1` and `Cc1c(C(=O)Nc2ccc3c(c2)C(=O)N(C)C3)cc(C2CC2)n1C` cannot be ordered by IC50: over 99.5 µM for the first, over 99.5 µM for the second.

`CN(C(=O)c1ccc2c(c1)[C@H](CN)CCC2)C1CCN(CC(F)F)CC1` and `COC(=O)c1n[nH]cc1CN1CCC(c2nc3ccccc3s2)CC1` cannot be ordered by IC50: over 99.5 µM for the first, over 99.5 µM for the second.

`CCn1c(=O)c(N2C[C@H]3CCS(=O)(=O)[C@H]3C2)nc2ccccc21` and `CCn1c(=O)c(N2CC[C@H](N3CCCS3(=O)=O)C2)nc2ccccc21` cannot be ordered by IC50: over 99.5 µM for the first, over 99.5 µM for the second.

`Cc1ccc(S(=O)(=O)N2CCC(NS(=O)(=O)c3ccc(Cl)cc3C(=O)O)CC2)cc1` and `O=C(O)c1cc(Cl)ccc1S(=O)(=O)Nc1ccc(Oc2ccccn2)cc1` cannot be ordered by IC50: over 99.5 µM for the first, over 99.5 µM for the second.

`O=C(N[C@@H](C(=O)N[C@H]1CCCNC1)c1ccc(OCc2ccccc2)cc1)OCc1ccccc1` and `O=C(N[C@@H](C(=O)Nc1nc2c(s1)CNC2)c1ccc(OCc2ccccc2)cc1)OCc1ccccc1` cannot be ordered by IC50: over 99.5 µM for the first, over 99.5 µM for the second.

`CCn1c(=O)c(N2CCC[C@@H]2Cc2cccs2)nc2ccccc21` and `CCn1c(=O)c(N2CC[C@@H](CN3CCCCC3)C2)nc2ccccc21` cannot be ordered by IC50: over 99.5 µM for the first, over 99.5 µM for the second.

`CC(C)c1cc(-c2ccc([C@@H](NC(=O)OCc3ccccc3)C(=O)Nc3cccc(CN)c3)cc2)on1` and `NCc1cccc(NC(=O)[C@H](NS(=O)(=O)C[C@H]2COCCO2)c2ccc(OCc3ccccc3)cc2)c1` cannot be ordered by IC50: over 99.5 µM for the first, over 99.5 µM for the second.

`CC(C)(CO)NC(=O)c1cc(Cl)cc(NC(=O)c2cc(Cl)ccc2O)c1` and `O=C(Nc1cc(Cl)cc(C(=O)Nc2cc3n(n2)CCNC3)c1)OCc1ccccc1` cannot be ordered by IC50: over 99.5 µM for the first, over 99.5 µM for the second.

`O=C1CN(Cc2c[nH]c3ccccc23)CCN1c1cccnc1` and `Fc1cccc(F)c1-c1n[nH]cc1CN1CCC(c2nc3ccccc3s2)CC1` cannot be ordered by IC50: over 99.5 µM for the first, over 99.5 µM for the second.

`O=c1oc2cccnc2n1CC=Cc1ccccc1` and `C[C@@H]1c2cccnc2CCN1Cc1cccc(CN(C)C)c1` cannot be ordered by IC50: over 99.5 µM for the first, over 99.5 µM for the second.

`Clc1ccc2c(c1)ncn2Cc1ccc(-c2nn[nH]n2)cc1` and `Cn1cc(Nc2ccc(S(=O)(=O)Nc3ccc(Cl)cc3C(=O)O)cn2)cn1` cannot be ordered by IC50: over 99.5 µM for the first, over 99.5 µM for the second.

`C[C@H]1CNC[C@H](C(=O)Nc2cccc(CN)c2)C1` and `O=C(N[C@@H](C(=O)Nc1n[nH]c2c1CNC21CC1)c1ccc(OCc2ccccc2)cc1)OCc1ccccc1` cannot be ordered by IC50: over 99.5 µM for the first, over 99.5 µM for the second.

`O=C(N[C@@H](C(=O)Nc1ccc2c(n1)CNC2)c1ccc(OCc2ccccc2)cc1)OCc1ccccc1` and `CS(=O)(=O)c1cccc(CNC(=O)[C@@H](NC(=O)OCc2ccccc2)c2ccc(OCc3ccccc3)cc2)c1` cannot be ordered by IC50: over 99.5 µM for the first, over 99.5 µM for the second.

Going from `OC[C@H]1CCN(c2cncc(N3CCOCC3)n2)C1` to `O=C(NC1CCCCC1)c1cc(Cl)ccc1NS(=O)(=O)c1ccc(Oc2ccccc2Cl)cc1`, the IC50 falls from over 99.5 µM to 13.7 µM. The second is the more potent here.

`CS(=O)(=O)NCc1cccc(CNC(=O)[C@@H](NC(=O)OCc2ccccc2)c2ccc(OCc3ccccc3)cc2)c1` and `Nc1ccc2ccc(B(O)O)cc2c1` cannot be ordered by IC50: over 99.5 µM for the first, over 99.5 µM for the second.

With `NCc1cccc(NC(=O)C[C@H](NC(=O)OCc2ccccc2)C2CCCCC2)c1` the IC50 was 67.1 µM and 69.7 µM.
`CCOc1cccc(-c2ccc(S(=O)(=O)Nc3ccc(Cl)cc3C(=O)O)cc2)c1` was tested, and the IC50 was 4.25 µM and 6.13 µM.
